Laboratory results reported in PubChem BioAssay (NCI).
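Briefly, cells in 96-well plates were exposed to five compound concentrations for 48 h, and endpoints were estimated by linear interpolation. GI50 marks 50% less growth. The concentration for full growth arrest is given as TGI.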

Legend:
Experiment in all cases: inhibition of tumour cell growth, NCI panel, 48 h
[1] = system: HS 578T breast
[2] = system: A498 renal
[3] = system: SK-MEL-28 melanoma
[4] = system: HT29 colon
[5] = system: MCF7 breast
[6] = system: T-47D breast
[7] = system: RXF 393 renal
[8] = system: MDA-MB-231 breast
[9] = system: KM12 colon
[10] = system: SR leukemia

Structure (SMILES)	GI50 [1]	TGI [1]	GI50 [2]	TGI [2]	GI50 [3]	TGI [3]	GI50 [4]	TGI [4]	GI50 [5]	TGI [5]	GI50 [6]	TGI [6]	GI50 [7]	TGI [7]	GI50 [8]	TGI [8]	GI50 [9]	TGI [9]	TGI [10]	GI50 [10]
COc1cc2c3c(n(C)c(=O)c2cc1OC)-c1cc2c(cc1/C3=C\CN)OCO2	34.9 µM	> 100 µM	3.07 µM	86.8 µM	7.38 µM	> 48.5 µM	0.192 µM	24.8 µM	0.236 µM	> 31.6 µM	0.0176 µM	0.639 µM	3.17 µM	> 45.8 µM	5.8 µM	> 35.4 µM	1.18 µM	12.1 µM	–	–
CCC(C)COC(=O)c1ccc(N=Cc2ccc(C=Nc3ccc(C(=O)OCC(C)CC)cc3)cc2)cc1 (centres undefined)	–	–	–	> 100 µM	–	> 100 µM	–	> 100 µM	–	–	–	–	–	> 100 µM	–	–	–	–	> 100 µM	–
O=C1/C(=C/c2ccc3c(c2)OCO3)SC2C=Nc3ccccc3N12 (centres undefined)	–	–	–	> 100 µM	–	> 100 µM	–	> 100 µM	–	–	–	–	–	> 100 µM	–	–	–	> 100 µM	–	–
COc1ccc2c(c1)C(=O)c1c-2c(N2CCN(C(=O)CNCCNCCO)CC2)nc2ccccc12	5.92 µM	25.7 µM	8.32 µM	20.2 µM	2.02 µM	3.54 µM	1.61 µM	3.05 µM	1.75 µM	3.5 µM	2.49 µM	6.55 µM	–	–	3.23 µM	12.7 µM	2.48 µM	5.79 µM	–	–
O=C(N[C@@H](c1ccc(Cl)c(Cl)c1)C1CNC1)c1ccc2cnccc2c1	0.0256 µM	0.483 µM	0.157 µM	1.36 µM	0.301 µM	3.43 µM	0.206 µM	12.1 µM	0.2 µM	1.59 µM	0.0591 µM	3.57 µM	0.023 µM	0.191 µM	0.639 µM	15 µM	0.314 µM	4.44 µM	–	–
CC(=O)Oc1c2c(c(O)c3ccccc13)C(n1cnc3c(ncn3C3OC(CO)C4OC(C)(C)OC43)c1=N)CCC2 (centres undefined)	–	–	–	33.3 µM	–	31.8 µM	–	29.2 µM	–	–	–	–	–	32.3 µM	–	–	–	29 µM	–	–
CCOc1ccc(NC(=O)C(=O)CC(=O)c2c(C)n([O-])c3ccccc3[n+]2=O)cc1	–	–	–	> 100 µM	–	> 100 µM	–	> 100 µM	–	–	–	–	–	> 100 µM	–	–	–	> 100 µM	> 100 µM	–
CN(C)CC[PH+](c1ccccc1)c1ccccc1.CN(C)CC[PH+](c1ccccc1)c1ccccc1.[Cl-].[Pd+2]	> 100 µM	> 100 µM	> 100 µM	> 100 µM	> 100 µM	> 100 µM	> 100 µM	> 100 µM	> 100 µM	> 100 µM	> 100 µM	> 100 µM	–	–	> 100 µM	> 100 µM	> 100 µM	> 100 µM	–	–
COc1cccc(C2=NC(C(C)C)CO2)c1 (centres undefined)	–	–	–	> 100 µM	–	> 100 µM	–	> 100 µM	–	–	–	–	–	> 100 µM	–	–	–	> 100 µM	–	–
COC1(OC)C(N(C)C)=C(Cl)C(=O)/C1=C/C=O	–	–	–	> 100 µM	–	> 100 µM	–	> 100 µM	–	–	–	–	–	–	–	–	–	–	> 100 µM	–
COc1cccc2c1C(=O)c1c(O)c3c(c(O)c1C2=O)C[C@](O)(C(=O)CO)C[C@H]3O[C@@H]1C[C@@H](NC(=O)CCCCCN(C)C2(c3ccc(F)cc3)CC3CCC2C3)[C@H](O)[C@@H](C)O1 (some centres undefined)	8.26 µM	21.6 µM	5.92 µM	12.4 µM	7.25 µM	15.7 µM	0.676 µM	1.5 µM	0.966 µM	2.7 µM	–	–	2.71 µM	10.5 µM	1 µM	2.63 µM	–	–	1.64 µM	0.223 µM
Cc1[nH]c2ccccc2c1C(=O)/C=C/c1ccccc1O	–	–	–	> 100 µM	–	> 100 µM	–	> 100 µM	–	–	–	–	–	> 100 µM	–	–	–	> 100 µM	> 100 µM	–
N#CC(C(=O)C(=O)C(C#N)c1ccc(Br)cc1)c1ccc(Br)cc1 (centres undefined)	–	–	–	29.3 µM	–	28.9 µM	–	22.8 µM	–	–	–	–	–	9.01 µM	–	–	–	22.4 µM	> 100 µM	–
[N-]=[N+]=N[C@H]1C[C@@H](CO)O[C@H]1n1cnc2c(N)ncnc21	–	–	–	–	–	> 100 µM	–	> 100 µM	–	–	–	–	–	–	–	–	–	> 100 µM	–	–
Cc1ccc(NC(=O)CCc2cc(C(C)(C)C)nc(=S)[nH]2)cc1C	–	–	–	> 100 µM	–	> 100 µM	–	> 100 µM	–	–	–	–	–	> 100 µM	–	–	–	> 100 µM	> 100 µM	–
C=C(C)[C@@H]1CC[C@]2(C)[C@H](CC=C3[C@@H]4CC(C)(C)CC[C@]4(C(N)=O)CC[C@]32C)[C@@]1(C)CCC#N	3.28 µM	54.6 µM	2.16 µM	5.32 µM	4.17 µM	> 100 µM	3.48 µM	> 100 µM	2.81 µM	24.5 µM	3.27 µM	> 100 µM	2.34 µM	5.11 µM	3.96 µM	> 100 µM	3.1 µM	14.8 µM	–	–
O=C(CC1(O)C(=O)N(Cc2ccccc2)c2ccc(F)cc21)c1ccc(C(=O)NCC2CCC3(CC2)OOC2(CCCCC2)OO3)cc1 (centres undefined)	1.92 µM	6.08 µM	1.69 µM	3.88 µM	4.38 µM	> 84.7 µM	0.362 µM	1.28 µM	1.92 µM	> 31.9 µM	0.843 µM	3.11 µM	0.317 µM	0.851 µM	0.423 µM	1.68 µM	0.338 µM	1.19 µM	–	–
COc1ccc(Nc2nnc(-c3cc(O)ccc3O)s2)cc1	19.7 µM	> 50 µM	> 50 µM	> 50 µM	27.1 µM	> 50 µM	> 50 µM	> 50 µM	11.4 µM	35.4 µM	–	–	30.6 µM	> 50 µM	9.65 µM	31.1 µM	32.6 µM	> 50 µM	34.2 µM	1.41 µM
CN(C)CC1CCCC/C1=N/OC(=O)c1ccc(Cl)cc1 (centres undefined)	–	–	–	> 100 µM	–	> 100 µM	–	> 100 µM	–	–	–	–	–	> 100 µM	–	–	–	> 100 µM	> 100 µM	–
COc1ccc(CC2NCCc3c2[nH]c2ccccc32)cc1 (centres undefined)	–	–	–	> 100 µM	–	> 100 µM	–	> 100 µM	–	–	–	–	–	–	–	–	–	> 100 µM	–	–
